Measured values taken from PubChem BioAssay AID1259407 (Chemical Carcinogenesis Research Information System (CCRIS), 2018).
Calls of active or inactive are those of the source. No rule for the calls is given here.

System: CCRIS mutagenicity, Ames/micronucleus/aberration tests
Experiment: CCRIS mutagenicity studies
Settings: Test System: AMES SALMONELLA TYPHIMURIUM
[1] = Strain/Indicator: TA98, Metabolic Activation: NONE, Method: PREINCUBATION
[2] = Strain/Indicator: TA100, Metabolic Activation: NONE, Method: PREINCUBATION
[3] = Strain/Indicator: TA97, Metabolic Activation: NONE, Method: STANDARD PLATE
[4] = Strain/Indicator: TA98, Metabolic Activation: NONE, Method: STANDARD PLATE
[5] = Strain/Indicator: TA100, Metabolic Activation: NONE, Method: STANDARD PLATE
[6] = Strain/Indicator: TA102, Metabolic Activation: NONE, Method: STANDARD PLATE

SMILES: Oc1ccc2cc(SSc3ccc4cc(O)ccc4c3)ccc2c1
- mutagenic call (Strain/Indicator: TA97, Metabolic Activation: HAMSTER, LIVER, S-9, AROCLOR 1254 (10 OR 30%), Method: PREINCUBATION): inactive; negative
- mutagenic call (Strain/Indicator: TA97, Metabolic Activation: NONE, Method: PREINCUBATION): inactive; negative
- mutagenic call (Strain/Indicator: TA97, Metabolic Activation: RAT, LIVER, S-9, AROCLOR 1254 (10 OR 30%), Method: PREINCUBATION): inactive; negative
- mutagenic call (Strain/Indicator: TA98, Metabolic Activation: HAMSTER, LIVER, S-9, AROCLOR 1254 (10 OR 30%), Method: PREINCUBATION): inactive; negative
- mutagenic call [1]: inactive; negative
- mutagenic call (Strain/Indicator: TA98, Metabolic Activation: RAT, LIVER, S-9, AROCLOR 1254 (5 OR 30%), Method: PREINCUBATION): inactive; negative
- mutagenic call (Strain/Indicator: TA98, Metabolic Activation: RAT, LIVER, S-9, AROCLOR 1254 (10%), Method: PREINCUBATION): inactive; negative
- mutagenic call (Strain/Indicator: TA100, Metabolic Activation: HAMSTER, LIVER, S-9, AROCLOR 1254 (10 OR 30%), Method: PREINCUBATION): inactive; negative
- mutagenic call [2]: inactive; negative
- mutagenic call (Strain/Indicator: TA100, Metabolic Activation: RAT, LIVER, S-9, AROCLOR 1254 (5 OR 30%), Method: PREINCUBATION): inactive; negative
- mutagenic call (Strain/Indicator: TA100, Metabolic Activation: RAT, LIVER, S-9, AROCLOR 1254 (10%), Method: PREINCUBATION): inactive; negative
- mutagenic call (Strain/Indicator: TA102, Metabolic Activation: HAMSTER, LIVER, S-9, AROCLOR 1254 (10 OR 30%), Method: PREINCUBATION): inactive; negative
- mutagenic call (Strain/Indicator: TA102, Metabolic Activation: NONE, Method: PREINCUBATION): inactive; negative
- mutagenic call (Strain/Indicator: TA102, Metabolic Activation: RAT, LIVER, S-9, AROCLOR 1254 (10 OR 30%), Method: PREINCUBATION): inactive; negative
- mutagenic call (Strain/Indicator: TA1535, Metabolic Activation: RAT, LIVER, S-9, AROCLOR 1254 (5, 10 OR 30%), Method: PREINCUBATION): inactive; negative
- mutagenic call (Strain/Indicator: TA1538, Metabolic Activation: RAT, LIVER, S-9, AROCLOR 1254 (5, 10 OR 30%), Method: PREINCUBATION): inactive; negative

SMILES: CCc1cccc(CC)c1NC(=O)CO
- mutagenic call [1]: inactive; negative
- mutagenic call (Strain/Indicator: TA98, Metabolic Activation: RAT, LIVER, MICROSOMES, PHENOBARBITAL, Method: PREINCUBATION): inactive; negative
- mutagenic call [2]: inactive; negative
- mutagenic call (Strain/Indicator: TA100, Metabolic Activation: RAT, LIVER, MICROSOMES, PHENOBARBITAL, Method: PREINCUBATION): active; positive

SMILES: O=C([O-])c1cccnc1Nc1cccc(C(F)(F)F)c1.O=C([O-])c1cccnc1Nc1cccc(C(F)(F)F)c1.[Cu+2]
- mutagenic call (Strain/Indicator: TA97, Metabolic Activation: MOUSE, LIVER, S-9, Method: STANDARD PLATE): inactive; negative
- mutagenic call [3]: inactive; negative
- mutagenic call (Strain/Indicator: TA97, Metabolic Activation: RAT LIVER S-9, DELOR 103, Method: STANDARD PLATE): inactive; negative
- mutagenic call (Strain/Indicator: TA98, Metabolic Activation: MOUSE, LIVER, S-9, Method: STANDARD PLATE): inactive; negative
- mutagenic call [4]: inactive; negative
- mutagenic call (Strain/Indicator: TA98, Metabolic Activation: RAT LIVER S-9, DELOR 103, Method: STANDARD PLATE): inactive; negative
- mutagenic call (Strain/Indicator: TA100, Metabolic Activation: MOUSE, LIVER, S-9, Method: STANDARD PLATE): inactive; negative
- mutagenic call [5]: inactive; negative
- mutagenic call (Strain/Indicator: TA100, Metabolic Activation: RAT LIVER S-9, DELOR 103, Method: STANDARD PLATE): inactive; negative
- mutagenic call (Strain/Indicator: TA102, Metabolic Activation: MOUSE, LIVER, S-9, Method: STANDARD PLATE): inactive; negative
- mutagenic call [6]: inactive; negative
- mutagenic call (Strain/Indicator: TA102, Metabolic Activation: RAT LIVER S-9, DELOR 103, Method: STANDARD PLATE): inactive; negative

SMILES: Clc1ccncc1
- mutagenic call [3]: inactive; negative
- mutagenic call (Strain/Indicator: TA97, Metabolic Activation: RAT, LIVER, S-9, AROCLOR 1254, Method: STANDARD PLATE): inactive; negative
- mutagenic call [4]: inactive; negative
- mutagenic call (Strain/Indicator: TA98, Metabolic Activation: RAT, LIVER, S-9, AROCLOR 1254, Method: STANDARD PLATE): inactive; negative
- mutagenic call [5]: inactive; negative
- mutagenic call (Strain/Indicator: TA100, Metabolic Activation: RAT, LIVER, S-9, AROCLOR 1254, Method: STANDARD PLATE): inactive; negative
- mutagenic call [6]: inactive; negative
- mutagenic call (Strain/Indicator: TA102, Metabolic Activation: RAT, LIVER, S-9, AROCLOR 1254, Method: STANDARD PLATE): inactive; negative

SMILES: O=[N+]([O-])c1ccc2ncccc2c1
- mutagenic call [1]: active; positive
- mutagenic call (Strain/Indicator: TA98, Metabolic Activation: RAT, LIVER, S-9, Method: PREINCUBATION): active; positive
- mutagenic call [2]: active; positive
- mutagenic call (Strain/Indicator: TA100, Metabolic Activation: RAT, LIVER, S-9, Method: PREINCUBATION): active; positive
